# Experimental data taken from article PMC5865651, “Novel inhibitor candidates of TRPV2 prevent damage of dystrophic myocytes and ameliorate against dilated cardiomyopathy in a hamster model” (Oncotarget, 2018).
# What was measured:
# human TRPV2 (hTRPV2) [1] = target: T1, human TRPV2 (hTRPV2) (Homo sapiens, UniProt Q9Y5S1); conditions: cited from earlier work
# T1 sequence (Q9Y5S1 1-764): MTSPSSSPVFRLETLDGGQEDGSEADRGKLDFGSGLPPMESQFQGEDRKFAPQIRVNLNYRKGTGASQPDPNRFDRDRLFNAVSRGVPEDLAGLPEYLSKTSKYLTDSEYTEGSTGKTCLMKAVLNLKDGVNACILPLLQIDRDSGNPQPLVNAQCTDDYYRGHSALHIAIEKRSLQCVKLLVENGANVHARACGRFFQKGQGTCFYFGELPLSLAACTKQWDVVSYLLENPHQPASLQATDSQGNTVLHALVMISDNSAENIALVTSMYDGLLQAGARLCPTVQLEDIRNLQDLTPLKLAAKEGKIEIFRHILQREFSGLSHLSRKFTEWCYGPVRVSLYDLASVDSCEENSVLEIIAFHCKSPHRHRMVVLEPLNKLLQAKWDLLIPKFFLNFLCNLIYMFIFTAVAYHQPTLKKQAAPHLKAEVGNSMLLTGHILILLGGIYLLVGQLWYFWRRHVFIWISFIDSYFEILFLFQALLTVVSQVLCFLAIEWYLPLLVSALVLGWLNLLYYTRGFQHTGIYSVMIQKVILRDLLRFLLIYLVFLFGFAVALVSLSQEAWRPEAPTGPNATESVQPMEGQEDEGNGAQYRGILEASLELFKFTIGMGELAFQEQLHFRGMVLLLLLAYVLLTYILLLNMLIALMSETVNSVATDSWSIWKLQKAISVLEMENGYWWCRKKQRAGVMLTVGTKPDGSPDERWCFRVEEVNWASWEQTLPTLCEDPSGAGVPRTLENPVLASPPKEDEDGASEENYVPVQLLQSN
# J2N-k myocytes = assay: Stretch-induced CK release from J2N-k myocytes; assay type: cell-based, hamster; conditions: 30 μM, 30 min pretreatment, cyclic stretch 20% elongation 1 h
# Method: Creatine phosphokinase (CK) activity in the medium was determined using an in vitro colorimetric assay kit (CK Test Kit; Wako Pure Chemical Industries, Ltd., Osaka, Japan) according to the manufacturer's protocol The cTN-I level in the serum was measured, while quantitative immunoblotting and immunocytochemistry were performed as previously described. Protein concentration was measured using the bicinchoninic acid assay (Pierce Chemical Co., Rockford, IL, USA) with bovine serum albumin as the standard. All histochemical and physiological analyses were performed by investigators blinded to the drug treatments. Unless otherwise stated, results are presented as the mean ± SD of at least 5 determinations. The unpaired Student's t-test and one-way ANOVA followed by Dunnett's test were used to analyse the data. Values of P < 0.05 (indicated as asterisks in the figures) were considered statistically significant. All cellular measurements were repeated at least 5 times. Representative data are shown.
# human TRPV2 (hTRPV2) [2] = target: T1, human TRPV2 (hTRPV2); assay: CaCl2 (5 mM)-induced increase in [Ca2+]i in CHO cells expressing hTRPV2; assay type: cell-based; set-up: expressed in transfected cells; host or cells: CHO cells; conditions: compound 15 μM
# Method: Figure 4 Effects of inhibitor compounds on the Ca^2+ response of cells expressing hTRPV1, hTRPV2, or hTRPC1 (A) Effect of compounds on CaCl2 (5 mM)-induced peak fluorescence ratio in non-transfected (nt) or hTRPV2-transfected CHO cells. The extracellular Ca^2+-dependent increase in the ratio of fura-2 fluorescence intensity at 340/380 nm (ΔR, 2 min after addition of chemicals) was plotted as ΔR/R0 after normalising to the initial fluorescence ratio (R0). […] Solid bar, no inhibitor. (B) Effect of compounds on 2-APB (1 mM)/high extracellular CaCl2-induced peak fluorescence ratio in nt or hTRPV1-transfected HEK293 cells. […] (C) Effect of compounds on store-operated Ca^2+ entry in nt or hTRPC1-transfected HEK293 cells. Cells were treated with the endoplasmic reticulum Ca^2+ pump inhibitor thapsigargin and exposed to CaCl2 and the indicated compounds. ΔR was measured 2 min after the addition of CaCl2. […]
# [Ca^2+]i was measured by a ratiometric fluorescence method as previously described. […] Fura-2-AM fluorescence was measured using an Aquacosmos fluorescence image processor (Hamamatsu Photonics, Hamamatsu, Japan). The time-course data are presented as the ratio of fluorescence at an excitation wavelength of 340 nm to that at 380 nm. The increase in the fluorescence ratio induced by the TRPV2 agonist 2-APB or high extracellular Ca^2+ (ΔR) was normalized to the initial ratio (R0) before stimulation. […]
# [3] = system: dystrophic myocytes from J2N-k hamsters; assay: Ca2+ response in cultured myocytes from dystrophic J2N-k hamsters; assay type: cell-based, hamster; conditions: compound 15 μM
smiles,measurement,setting,value
"NCCOB(c1ccccc1)c1ccccc1 [2-APB, 2-aminoethoxydiphenylborate]",response of hTRPV2 to 2-APB,human TRPV2 (hTRPV2) [1],unresponsive
"COc1cc(/C=C(\C#N)C(=O)Nc2ccccc2C(=O)O)cc(Cl)c1OC [A3, 2-[(2E)-3-(3-Chloro-4,5-dimethoxyphenyl)-2-cyanoprop-2-enoylamino]benzoic acid]",reduction of stretch-induced CK release,J2N-k myocytes,up to 70%
same,effect on Ca2+ influx in response to CaCl2 exposure,human TRPV2 (hTRPV2) [2],markedly inhibited
"COc1cccc(OCCn2cc(/C=N/n3cnnc3)c3ccccc32)c1 [B6, 1-{2-[3-((1E)-2-(1,2,4-triazol-4-yl)-2-azavinyl)indolyl]ethoxy}-3-methoxybenzene]",effect on Ca2+ influx in response to CaCl2 exposure,human TRPV2 (hTRPV2) [2],not
"CCN1C=CC(=CC=C(C=Cc2cc[n+](CC)c3ccccc23)c2cc[n+](CC)c3ccccc23)c2ccccc21.[I-].[I-] [lumin, 4,4′-[3-[2-[1-ethyl-4(1H)-quinolinylidene]ethylidene]-1-propene-1,3-diyl]bis(1-ethylquinolinium) diiodide]",effect on high extracellular Ca2+ (5 mM)-induced increase in [Ca2+]i,[3],inhibited
same,effect on 2-APB-induced increase in [Ca2+]i,"[3]; 2-APB 0.5 mM, CaCl2 5 mM, pH 6.5",inhibited
